Measurements published in paper PMC9088016, “Synthesis and biological evaluation of phosphatidylcholines with cinnamic and 3-methoxycinnamic acids with potent antiproliferative activity” (RSC Advances, 2018).
Read-outs that look alike come from different tables or passages of the source.

Key:
LoVo/DX cells = experiment: Antiproliferative assay in vitro (SRB), 72 h; type: cell-based, human; conditions: for Resistance index (RI): doxorubicin-resistant LoVo/DX cell line versus LoVo; for IC50: doxorubicin-resistant colon cancer cells, SRB, 72 h exposure, mean ± SD
Protocol: (§1) Biophenotypic B myelomonocytic leukaemia MV4-11, human lung carcinoma A549, human breast carcinoma MCF-7, human colon carcinoma LoVo, its drug resistant line LoVo/DX, liver carcinoma HepG2, and normal mouse fibroblast BALB/3T3 cells were obtained from the American Type Culture Collection (Rockville, Maryland, USA). All lines are being maintained at the Institute of Immunology and Experimental Therapy, Wrocław, Poland. All cell lines were grown in a humid atmosphere at 37 °C with 5% CO2 and were cultured in media according to the method described before.[18]
(§2) Prior to usage, the compounds were dissolved in DMSO to the concentration of 25 or 50 mM, and subsequently diluted in the culture medium to reach the required concentrations (ranging from 5 to 625 μM).
(§3) Twenty-four hours before addition of the tested compounds, the cells were plated in 96-well plates (Sarstedt, USA) at a density of 10^4 cells per well. All cell lines were exposed to each tested phosphatidylcholines for 72 h. Cells were also exposed to the commercially available drugs cisplatin and doxorubicin. Cell lines were also exposed to the solvent used for the tested compounds (DMSO) at concentrations corresponding to those present in the tested agents' dilutions. For adherent cells, a SRB assay was performed and an MTT assay was performed for leukaemia cells.
(§4) The cytotoxicity assay was performed after 72 h exposure of the cultured cells to varying concentrations (from 5 to 625 μM) of the tested agents. The cells attached to the plastic were fixed in situ by gently adding 50 μL per well of cold 50% TCA (trichloroacetic acid). The plates were incubated at 4 °C for 1 h and then washed five times with tap water. The background optical density was measured in the wells filled with culture medium, without the cells. The cellular material fixed with TCA was stained with 50 μL of 0.4% sulforhodamine B (SRB) dissolved in 1% acetic acid for 30 min. Unbound dye was removed by rinsing (4×) with 1% acetic acid. The protein-bound dye was extracted with 10 mM unbuffered Tris base for determination of the optical density (at 540 nm) in a computer-interfaced 96-well microtiter plate reader Multiskan RC photometer (Labsystems, Helsinki, Finland). Each compound in the given concentration was tested in triplicate in each experiment, which was repeated 3–5 times.
(§5) The results of the cytotoxic activity in vitro were expressed as IC50—the concentration of compound (in μM) that inhibits the proliferation rate of the tumor cells by 50% as compared to control untreated cells.

MCF-7 cells = experiment: Antiproliferative assay in vitro (SRB), 72 h; type: cell-based, human; conditions: 72 h exposure, mean ± SD
Protocol: as §1, §2, §3, §4, §5

A549 cells = experiment: Antiproliferative assay in vitro (SRB), 72 h; type: cell-based, human; conditions: 72 h exposure, mean ± SD, read-out: IC50 A-549
Protocol: as §1, §2, §3, §4, §5

HepG2 cells = experiment: Antiproliferative assay in vitro (SRB), 72 h; type: cell-based, human; conditions: 72 h exposure, mean ± SD
Protocol: as §1, §2, §3, §4, §5

LoVo cells = experiment: Antiproliferative assay in vitro (SRB), 72 h; type: cell-based, human; conditions: colon cancer cells, 72 h exposure, mean ± SD
Protocol: as §1, §2, §3, §4, §5

BALB/3T3 cells = experiment: Antiproliferative assay in vitro (SRB), 72 h; type: cell-based, mouse; conditions: 72 h exposure, mean ± SD
Protocol: as §1, §2, §3, §4, §5

MV4-11 cells [1] = experiment: Antiproliferative assay in vitro (MTT), 72 h; type: cell-based, human; conditions: leukaemia cells; for IC50: MTT, 72 h exposure, mean ± SD; for Fold lower IC50 than free cinnamic / 3-methoxycinnamic acid: versus corresponding free acid
Protocol: as §1, §2, §3
This technique was applied for the cytotoxicity screening against leukemia cells. An assay was performed after 72 h exposure to varying concentrations (from 5 to 625 μM) of the tested agents. For the last 3–4 hours of incubation. 20 μL of MTT solution was added to each well (MTT: 3-(4,5-dimethylthiazol-2-yl)-2,5-diphenyl tetrazolium bromide; stock solution: 5 mg mL^−1, Sigma, Germany). The mitochondria of viable cells reduce the pale yellow MTT to a navy blue formazan: the more viable cells are present in a well, the more MTT will be reduced to formazan. When the incubation time was completed, 80 μL of the lysing mixture was added to each well (lysing mixture: 225 mL dimethylformamide, 67.5 g sodium dodecyl sulphate, and 275 mL of distilled water). After 24 h, when formazan crystals had been dissolved, the optical densities of the samples were read with a Multiskan RC photometer at 570 nm wavelength. Each compound in a given concentration was tested in triplicate in each experiment, which was repeated 3–5 times.
as §5

MV4-11 cells [2] = experiment: Cell cycle analysis (propidium iodide, flow cytometry); type: cell-based, human; conditions: 50 μM, 72 h
Protocol: For cell cycle analysis, the cells MV4-11 were treated with the tested compound 5a dissolved in DMSO at a concentration of 50 μM. The cells were treated also only by the DMSO for comparison. After 72 h of incubation, the cells (1 × 10^6) were trypsinized and rinsed with cold PBS. Washed cell pellets were fixed for 24 h in 70% ethanol at −20 °C. After fixation, the cells were washed twice with PBS once again and resuspended in PBS. Next, RNAse (8 μg mL^−1, Fermentas, Germany) was added and the cells were incubated for 1 h at 37 °C. The cells were then stained with propidium iodide (50 μg mL^−1, Sigma Aldrich, Germany) at 4 °C for 30 min and the cellular DNA content was analyzed by flow cytometry using a BD LSRFortessa cytometer (BD Bioscience, San Jose, USA). Compounds at each concentration were tested at least three times independently. The control in the assay was the cells exposed to DMSO at a concentration of 0.05%. Data were analyzed using ModFit 3.2 software (Verity Software, USA).

MV4-11 cells [3] = experiment: Determination of the mitochondrial membrane potential (JC-1, flow cytometry); type: cell-based, human; conditions: 50 μM, 72 h
Protocol: The loss of mitochondrial membrane potential was estimated using the fluorescent probe JC-1 (Sigma Aldrich, Germany). […] The cells were exposed to the tested compound 5a at a concentration of 50 μM. The MV4-11 cells (5 × 10^5) were washed in phosphate-buffered saline (PBS) containing 2% FBS. The pelleted cells were resuspended in 100 μL of the warm cultured medium with the addition of 10 μL of JC-1 (the final concentration of JC-1 was 3 μg mL^−1) and were then incubated for 30 min at 37 °C. Next, the cells were washed with 1 mL of PBS with 2% FBS and resuspended in 300 μL of PBS with 2% FBS. The mitochondrial membrane potential was analyzed by flow cytometry using BD LSRFortessa cytometry. Compounds at each concentration were tested at least three times independently. The control in the assay was the cells exposed to DMSO at a concentrations of 0.05%. Data were analyzed using Flowing software 2.5.1.

MV4-11 cells [4] = experiment: Cell death determination by Annexin V and PI staining; type: cell-based, human; conditions: 50 μM, 72 h
Protocol: The MV4-11 cells were exposed to the test compound 5a at a concentration of 50 μM for 72 h. After incubation, the cells (2 × 10^5) were washed twice with PBS. APC-Annexin V (BD Pharmingen) was dissolved to the concentration of 1 mg mL^−1 in a binding buffer (HEPES buffer: 10 mM HEPES/NaOH), pH 7.4, 150 mM NaCl, 5 mM KCl, 1 mM MgCl2, 1.8 mM CaCl2, (IIET, Poland) and the cells were suspended in 200 μL of this 1 mg mL^−1 solution (freshly prepared each time). After the incubation in the dark (15 min) at room temperature, the solution (1 mg mL^−1) of propidium iodide (PI) was added prior to the analysis to give a final concentration of 0.1 mg mL^−1. Data acquisition was performed by flow cytometry using a BD LSRFortessa cytometer. Compound 5a was tested at least three times independently. The control in the assay was the cells exposed to DMSO at a concentration of 0.05%. Results were analyzed using Flowing software 2.5.1. […] Double-negative cells were live cells, PI+/Annexin V+ were late apoptotic or necrotic cells, and PI-/Annexin V+ were early apoptotic.

[5] = Homo sapiens, MCF7, breast cancer cells
[6] = Homo sapiens, A549, lung cancer cells
[7] = Homo sapiens, HepG2, liver cancer cells
[8] = Mus musculus, BALB/3T3, normal mice fibroblast cells

Row | Compound | Resistance index (RI) (LoVo/DX cells) | IC50 (LoVo/DX cells) | IC50 (MCF-7 cells; breast cancer cells) | IC50 (A549 cells; lung cancer cells) | IC50 (HepG2 cells; liver cancer cells) | IC50 (LoVo cells) | IC50 (BALB/3T3 cells; normal mice fibroblast cells) | IC50 (MV4-11 cells [1]) | Fold lower IC50 than free cinnamic / 3-methoxycinnamic acid (MV4-11 cells [1]) | Ability to overcome drug resistance (LoVo/DX cells; doxorubicin-resistant LoVo/DX cell line, judged from RI) | IC50 (LoVo/DX cells; Homo sapiens, LoVo/DX) | IC50 (MCF-7 cells; [5]) | IC50 (A549 cells; [6]) | IC50 (HepG2 cells; [7]) | IC50 (LoVo cells; Homo sapiens, LoVo) | IC50 (BALB/3T3 cells; [8]) | IC50 (MV4-11 cells [1]; Homo sapiens, MV4-11) | Effect on cell cycle (MV4-11 cells [2]) | Cells having a significantly lowered mitochondrial membrane potential (Ψm) (MV4-11 cells [3]) | Induction of early apoptotic, apoptotic or necrotic cell death (MV4-11 cells [4])
1 | 1-(3-Methoxycinnamoyl)-2-hydroxy-sn-glycero-3-phosphocholine [Compound 9b] | 1.88 | 160 ± 61.7 µM | 84.1 ± 7.4 µM | 259 ± 16.7 µM | 272 ± 33.1 µM | 85.1 ± 11.9 µM | 154 ± 66.4 µM | 30.5 ± 8.2 µM | 11 fold |  |  |  |  |  |  |  |  |  |  | 
2 | 1-Cinnamoyl-2-hydroxy-sn-glycero-3-phosphocholine [Compound 9a] | 2.13 | 238.2 ± 2.3 µM | 104 ± 4.4 µM | 287.1 ± 2 µM | 290 ± 19.4 µM | 112 ± 26.3 µM | 160 ± 45.7 µM | 44.3 ± 5.1 µM | 8 fold | moderate ability to overcome drug resistance |  |  |  |  |  |  |  |  |  | 
3 | N.N.[Cl][Pt][Cl] [Cisplatin, cisplatin, reference compound] |  | 3.17 ± 0.2 µM | 8.1 ± 0.03 µM | 8.6 ± 0.7 µM | 2.38 ± 0.64 µM | 2.56 ± 0.4 µM | 4.2 ± 1.1 µM | 1.3 ± 0.47 µM |  |  |  |  |  |  |  |  |  |  |  | 
4 | O=C(O)/C=C/c1ccccc1 [Compound 1a, Cinnamic acid] |  |  |  |  |  |  |  |  |  |  | > 625 µM | 480 ± 46.2 µM | > 625 µM | > 625 µM | 284 ± 26.6 µM | > 625 µM | 359 ± 105 µM |  |  | 
5 | COc1cccc(C=CC(=O)O)c1 [Compound 1b, 3-methoxycinnamic acid] |  |  |  |  |  |  |  |  |  |  | > 625 µM | 420 ± 56.2 µM | > 625 µM | > 625 µM | 233 ± 15.5 µM | 506 ± 67.7 µM | 339 ± 111 µM |  |  | 
6 | C[N+](C)(C)CCOP(=O)([O-])OC[C@@H](COC(=O)C=Cc1ccccc1)OC(=O)C=Cc1ccccc1 [Compound 3a, 1,2-Dicinnamoyl-sn-glycero-3-phosphocholine] | 1.65 |  |  |  |  |  |  |  |  |  | 329 ± 12.5 µM | 321 ± 11.1 µM | > 625 µM | > 625 µM | 200 ± 49.7 µM | > 625 µM | 215 ± 51.9 µM |  |  | 
7 | COc1cccc(C=CC(=O)OC[C@H](COP(=O)([O-])OCC[N+](C)(C)C)OC(=O)C=Cc2cccc(OC)c2)c1 [Compound 3b, 1,2-Di(3-methoxycinnamoyl)-sn-glycero-3-phosphocholine] | 0.15 |  |  |  |  |  |  |  |  |  | 32.1 ± 16.9 µM | 307 ± 12.5 µM | 286 ± 5.3 µM | 83.6 ± 45.1 µM | 210 ± 22.2 µM | 297 ± 56.4 µM | 165 ± 25.4 µM |  |  | 
8 | CCCCCCCCCCCCCCCC(=O)OC[C@H](COP(=O)([O-])OCC[N+](C)(C)C)OC(=O)C=Cc1ccccc1 [Compound 5a, 1-Palmitoyl-2-cinnamoyl-sn-glycero-3-phosphocholine] | 1.08 |  |  |  |  |  |  |  |  |  | 56.3 ± 0.8 µM | 64.6 ± 3.4 µM | 56.3 ± 0.4 µM | 228 ± 30.6 µM | 52.3 ± 5 µM | 114 ± 36.6 µM | 43.2 ± 9.9 µM | arrested cell cycle in the G2/M phase | about 45% | lack of induction
9 | CCCCCCCCCCCCCCCC(=O)OC[C@H](COP(=O)([O-])OCC[N+](C)(C)C)OC(=O)C=Cc1cccc(OC)c1 [Compound 5b, 1-Palmitoyl-2-3-methoxycinnamoyl-sn-glycero-3-phosphocholine] | 0.99 |  |  |  |  |  |  |  |  |  | 69.9 ± 6.3 µM | 224 ± 9.5 µM | 193 ± 27.4 µM | 295 ± 11.4 µM | 70.4 ± 5.4 µM | 257 ± 52.4 µM | 83.2 ± 4 µM |  |  | 
10 | CCCCCCCCCCCCCCCC(=O)O[C@H](COC(=O)C=Cc1ccccc1)COP(=O)([O-])OCC[N+](C)(C)C [Compound 10a, 1-Cinnamoyl-2-palmitoyl-sn-glycero-3-phosphocholine] | 1.05 |  |  |  |  |  |  |  |  |  | 66 ± 8.7 µM | 127 ± 28.3 µM | 61.9 ± 3.7 µM | 283 ± 5.2 µM | 63 ± 14.4 µM | 208 ± 30.7 µM | 88.7 ± 28.9 µM |  |  | 
11 | CCCCCCCCCCCCCCCC(=O)O[C@H](COC(=O)C=Cc1cccc(OC)c1)COP(=O)([O-])OCC[N+](C)(C)C [Compound 10b, 1-3-Methoxycinnamoyl-2-palmitoyl-sn-glycero-3-phosphocholine] | 1.2 |  |  |  |  |  |  |  |  |  | 254 ± 11.6 µM | 214 ± 89.6 µM | 280 ± 8.8 µM | 296 ± 13.2 µM | 211.6 ± 1.3 µM | 291 ± 5.6 µM | 236 ± 46.3 µM |  |  | 
12 | COc1cccc2c1C(=O)c1c(O)c3c(c(O)c1C2=O)C[C@@](O)(C(=O)CO)C[C@@H]3O[C@H]1C[C@H](N)[C@H](O)[C@H](C)O1 [Doxorubicin, doxorubicin, reference compound] | 55.81 |  |  |  |  |  |  |  |  |  |  |  |  |  |  |  |  |  |  | 
